Data as given in patent US9688722B2, “Substrates and inhibitors of prolyl oligopeptidase and methods of use” (The Board of Regents of the University of Oklahoma, priority 2012, dated 2017).
“And” between values parts separate entries of the source, which are not always exact repeats. Equal values may be shown once.

Experiments:
DPPIV = DPPIV (Homo sapiens, UniProt P27487); test: DPPIV inhibition constants (Ki) with Tic-Pro-AFC substrate; assay type: biochemical
Experimental: (§1) For accurate assessment of kinetic parameters, saturating concentrations of substrate were used. For standard curves, dilutions of AFC (7-amino-4-trifluoromethylcoumarin) were prepared in the same assay buffer and corresponding fluorescence was measured.

POP = biological target: T1, POP (Homo sapiens, UniProt P48147); test: POP inhibition constants (Ki) with Tic-Pro-AFC substrate; assay type: biochemical
T1 sequence (P48147 1-710): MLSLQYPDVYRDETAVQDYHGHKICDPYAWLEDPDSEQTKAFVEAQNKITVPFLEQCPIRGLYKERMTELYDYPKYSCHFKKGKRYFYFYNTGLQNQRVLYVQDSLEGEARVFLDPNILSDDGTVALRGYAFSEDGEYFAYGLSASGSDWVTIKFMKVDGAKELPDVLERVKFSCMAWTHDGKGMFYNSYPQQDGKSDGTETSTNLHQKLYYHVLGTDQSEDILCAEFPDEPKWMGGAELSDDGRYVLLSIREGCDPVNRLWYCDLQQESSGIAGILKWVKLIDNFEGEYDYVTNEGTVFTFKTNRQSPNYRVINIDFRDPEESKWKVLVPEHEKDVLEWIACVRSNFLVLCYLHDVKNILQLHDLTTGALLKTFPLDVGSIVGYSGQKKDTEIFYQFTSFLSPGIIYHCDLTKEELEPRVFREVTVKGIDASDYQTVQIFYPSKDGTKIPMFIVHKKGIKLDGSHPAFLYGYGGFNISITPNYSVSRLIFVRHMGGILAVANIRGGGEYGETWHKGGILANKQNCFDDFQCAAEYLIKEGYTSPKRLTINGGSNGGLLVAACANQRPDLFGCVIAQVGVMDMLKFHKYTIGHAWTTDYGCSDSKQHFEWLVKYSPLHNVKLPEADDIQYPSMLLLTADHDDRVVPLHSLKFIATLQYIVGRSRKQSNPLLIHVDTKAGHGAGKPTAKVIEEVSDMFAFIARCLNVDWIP
Experimental: as §1

[1] = test system: human lung adenocarcinoma epithelial cells; test: Lung cancer xenografts in nude mice; assay type: in vivo
Experimental: Mice were given a 50 μl injection into each hind leg consisting of human lung adenocarcinoma epithelial cells (2×10^6 cells) suspended in Matrigel™. After ten days the tumors had grown to an estimated 40 mm^3, so M83 treatment was initiated (day 0 in graph). For the M83 treatment group, mice were given a daily intraperitoneal injection of 26.5 micrograms of M83 dissolved in 20 microliters of sterile saline. The mice of the control group were given an intraperitoneal injection of 20 microliters of sterile saline. […] The treatment groups consisted of three mice each with two tumors per mouse.

Chain of DPPIV (P27487 whole entry, species assumed): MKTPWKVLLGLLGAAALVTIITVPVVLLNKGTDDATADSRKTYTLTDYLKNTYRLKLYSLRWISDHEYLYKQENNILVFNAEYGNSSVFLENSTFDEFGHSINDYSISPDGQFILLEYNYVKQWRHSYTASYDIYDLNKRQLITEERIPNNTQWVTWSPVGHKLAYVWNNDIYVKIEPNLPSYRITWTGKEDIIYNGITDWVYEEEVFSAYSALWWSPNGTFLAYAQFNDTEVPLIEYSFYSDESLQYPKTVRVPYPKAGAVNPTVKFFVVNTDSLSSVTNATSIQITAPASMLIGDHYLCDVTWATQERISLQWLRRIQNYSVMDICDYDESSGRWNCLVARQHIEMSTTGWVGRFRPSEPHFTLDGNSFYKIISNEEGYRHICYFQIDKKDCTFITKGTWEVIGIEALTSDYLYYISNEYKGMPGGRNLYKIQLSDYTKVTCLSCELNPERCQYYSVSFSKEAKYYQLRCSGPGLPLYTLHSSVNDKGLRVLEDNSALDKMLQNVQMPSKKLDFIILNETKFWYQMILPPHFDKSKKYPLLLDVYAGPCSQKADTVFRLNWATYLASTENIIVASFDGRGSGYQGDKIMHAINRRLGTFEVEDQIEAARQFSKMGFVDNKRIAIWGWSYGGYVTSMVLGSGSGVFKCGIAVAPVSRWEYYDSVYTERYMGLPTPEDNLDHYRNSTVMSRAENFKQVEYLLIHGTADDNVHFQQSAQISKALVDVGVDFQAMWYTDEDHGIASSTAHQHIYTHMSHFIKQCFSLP

**Q.** Which results are given for CC(=O)N[C@@H](CCCNC(=N)N)C(=O)NCCOCCOCC(=O)N[C@H](C)C(=O)N1CCC[C@H]1B(O)O [Compound M83, acetyl-Arg-AEEA-(D)Ala-(L)boroPro]?
**A.** Selectivity Ki (DPPIV) / Ki (APCE-FAP) (DPPIV; ratio of Ki values): 1076; inhibition of DPPIV (DPPIV; result in words): nor was it inhibited; Ki (DPPIV; substrate Tic-Pro-AFC): 6.13 µM and 6.14 µM; Selectivity Ki (POP) / Ki (APCE/FAP) (POP; ratio of Ki values): 1.3; Ki (POP; substrate Tic-Pro-AFC): 0.0074 µM; tumor growth ([1]; daily intraperitoneal 26.5 micrograms, nude mice, versus saline control): failed to progress; average tumor volume ([1]; day 28 of treatment versus day zero): no greater than on day zero; tumors completely disappeared ([1]; six tumors in treatment group, 28 days): one of the six tumors
